Laboratory results: patent publication US12077503B2, “Substituted cyclic amides and their use as herbicides” (FMC CORPORATION, priority 2015, dated 2024)

Key:
Assay type in all cases: in vivo
[1] = system: barnyardgrass (Echinochloa crus-galli); assay: Test A preemergence; details: for Plant response rating, Barnyardgrass: 125 g ai/ha, preemergence, 0 to 100 scale (0 no effect, 100 complete control); for Barnyardgrass plant response rating (0 to 100 scale) / Barnyardgrass plant response rating (0 to 100 scale, 0 is no effect, 100 is complete control): Preemergence, 500 g ai/ha; for Barnyardgrass plant response rating (0 to 100 scale): 0 is no effect, 100 is complete control; for Barnyardgrass plant response rating (0 to 100 scale, 0 is no effect, 100 is complete control): visual injury approx. 10 d
Outline: (§1)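 Ratings of 0 (no effect) to 100 (complete control) come from visual comparison with untreated controls roughly 10 d after treatment. Test chemicals, formulated in a non-phytotoxic solvent mixture with surfactant, were applied either as a preemergence directed soil spray on seeded soil or postemergence to one- to two-leaf plants 2 to 10 cm tall.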

[2] = system: giant foxtail (Setaria faberii); assay: Test A preemergence; details: for Plant response rating, Foxtail, Giant: 125 g ai/ha, preemergence, 0 to 100 scale (0 no effect, 100 complete control); for Foxtail, Giant plant response rating (0 to 100 scale) / Foxtail, Giant plant response rating (0 to 100 scale, 0 is no effect, 100 is complete control): Preemergence, 500 g ai/ha; for Foxtail, Giant plant response rating (0 to 100 scale): 0 is no effect, 100 is complete control; for Foxtail, Giant plant response rating (0 to 100 scale, 0 is no effect, 100 is complete control): visual injury approx. 10 d
Outline: as §1

[3] = system: ragweed (common ragweed, Ambrosia elatior); assay: Test A preemergence; details: for Plant response rating, Ragweed: 125 g ai/ha, preemergence, 0 to 100 scale (0 no effect, 100 complete control); for Ragweed plant response rating (0 to 100 scale) / Ragweed plant response rating (0 to 100 scale, 0 is no effect, 100 is complete control): Preemergence, 500 g ai/ha; for Ragweed plant response rating (0 to 100 scale): 0 is no effect, 100 is complete control; for Ragweed plant response rating (0 to 100 scale, 0 is no effect, 100 is complete control): visual injury approx. 10 d
Outline: as §1

[4] = system: ryegrass, Italian (Italian ryegrass, Lolium multiflorum); assay: Test A preemergence; details: for Plant response rating, Ryegrass, Italian: 125 g ai/ha, preemergence, 0 to 100 scale (0 no effect, 100 complete control); for Ryegrass, Italian plant response rating (0 to 100 scale) / Ryegrass, Italian plant response rating (0 to 100 scale, 0 is no effect, 100 is complete control): Preemergence, 500 g ai/ha; for Ryegrass, Italian plant response rating (0 to 100 scale): 0 is no effect, 100 is complete control; for Ryegrass, Italian plant response rating (0 to 100 scale, 0 is no effect, 100 is complete control): visual injury approx. 10 d
Outline: as §1

[5] = system: pigweed (Amaranthus retroflexus); assay: Test A preemergence; details: for Plant response rating, Pigweed: 125 g ai/ha, preemergence, 0 to 100 scale (0 no effect, 100 complete control); for Pigweed plant response rating (0 to 100 scale) / Pigweed plant response rating (0 to 100 scale, 0 is no effect, 100 is complete control): Preemergence, 500 g ai/ha; for Pigweed plant response rating (0 to 100 scale): 0 is no effect, 100 is complete control; for Pigweed plant response rating (0 to 100 scale, 0 is no effect, 100 is complete control): visual injury approx. 10 d
Kochia (Kochia scoparia) [6] = assay: Test A preemergence; details: for Plant response rating, Kochia: 125 g ai/ha, preemergence, 0 to 100 scale (0 no effect, 100 complete control); for Kochia plant response rating (0 to 100 scale) / Kochia plant response rating (0 to 100 scale, 0 is no effect, 100 is complete control): Preemergence, 500 g ai/ha; for Kochia plant response rating (0 to 100 scale): 0 is no effect, 100 is complete control; for Kochia plant response rating (0 to 100 scale, 0 is no effect, 100 is complete control): visual injury approx. 10 d
Outline: as §1

rice (Oryra sativa) = assay: Test B flooded paddy test; details: Flood, 0 to 100 scale where 0 is no effect and 100 is complete control, 13 to 15 d
Outline: (§2)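 Response scored visually against untreated controls, 0 = no effect and 100 = complete control, 13–15 d after treatment in the greenhouse. Compounds added to paddy water held 3 cm above soil surface. Treatment given at 2-leaf stage.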

[7] = system: barnyardgrass (Echinochloa crus-galli); assay: Test B flooded paddy test; details: Flood, 0 to 100 scale where 0 is no effect and 100 is complete control, 13 to 15 d
Outline: as §2

[8] = system: ducksalad (Heteranthera limosa); assay: Test B flooded paddy test; details: Flood, 0 to 100 scale where 0 is no effect and 100 is complete control, 13 to 15 d
Outline: as §2

[9] = system: sedge, umbrella (small-flower umbrella sedge, Cyperus difformis); assay: Test B flooded paddy test; details: Flood, 0 to 100 scale where 0 is no effect and 100 is complete control, 13 to 15 d
Outline: as §2

[10] = system: barnyardgrass (Echinochloa crus-galli); assay: Test A postemergence; details: for Barnyardgrass plant response rating: visual injury rating on 0 to 100 scale (0 no effect, 100 complete control)
Outline: as §1

[11] = system: Galium (catchweed bedstraw, Galium aparine); assay: Test A postemergence; details: for Galium plant response rating: visual injury rating on 0 to 100 scale (0 no effect, 100 complete control)
Outline: as §1

[12] = system: blackgrass (Alopecurus myosuroides); assay: Test A postemergence; details: for Blackgrass plant response rating: visual injury rating on 0 to 100 scale (0 no effect, 100 complete control)
Outline: as §1

[13] = system: wheat (Triticum aestivum); assay: Test A postemergence; details: for Wheat plant response rating: visual injury rating on 0 to 100 scale (0 no effect, 100 complete control)
Outline: as §1

[14] = system: giant foxtail (Setaria faberii); assay: Test A postemergence; details: for Foxtail, Giant plant response rating: visual injury rating on 0 to 100 scale (0 no effect, 100 complete control)
Outline: as §1

[15] = system: ragweed (common ragweed, Ambrosia elatior); assay: Test A postemergence; details: for Ragweed plant response rating: visual injury rating on 0 to 100 scale (0 no effect, 100 complete control)
Outline: as §1

[16] = system: ryegrass, Italian (Italian ryegrass, Lolium multiflorum); assay: Test A postemergence; details: for Ryegrass, Italian plant response rating: visual injury rating on 0 to 100 scale (0 no effect, 100 complete control)
Outline: as §1

[17] = system: pigweed (Amaranthus retroflexus); assay: Test A postemergence; details: for Pigweed plant response rating: visual injury rating on 0 to 100 scale (0 no effect, 100 complete control)
Outline: as §1

Kochia (Kochia scoparia) [18] = assay: Test A postemergence; details: for Kochia plant response rating: visual injury rating on 0 to 100 scale (0 no effect, 100 complete control)
Outline: as §1

corn (Zea mays) = assay: Test A postemergence; details: for Corn plant response rating: visual injury rating on 0 to 100 scale (0 no effect, 100 complete control)
Outline: as §1

[19] = 500 g ai/ha, postemergence, 0 to 100 scale, 0 no effect, 100 complete control
[20] = Postemergence, 125 g ai/ha, visual injury, 0 to 100 scale (0 no effect, 100 complete control), approx. 10 d
[21] = 125 g ai/ha, postemergence, approx. 10 d

Row | Structure (SMILES) | Plant response rating, Barnyardgrass [1] | Plant response rating, Foxtail, Giant [2] | Plant response rating, Ragweed [3] | Plant response rating, Ryegrass, Italian [4] | Plant response rating, Pigweed [5] | Plant response rating, Kochia (Kochia (Kochia scoparia) [6]) | Plant response rating, Barnyardgrass [10, 19] | Plant response rating, Galium [11, 19] | Plant response rating, Blackgrass [12, 19] | Plant response rating, Wheat [13, 19] | Plant response rating, Foxtail, Giant [14, 19] | Plant response rating, Ragweed [15, 19] | Plant response rating, Ryegrass, Italian [16, 19] | Plant response rating, Pigweed [17, 19] | Plant response rating, Kochia (Kochia (Kochia scoparia) [18]; [19]) | Plant response rating, Corn (corn (Zea mays); [19]) | Plant response rating, Rice (rice (Oryra sativa); 500 g ai/ha) | Plant response rating, Barnyardgrass ([7]; 500 g ai/ha) | Plant response rating, Ducksalad ([8]; 500 g ai/ha) | Plant response rating, Sedge, Umbrella ([9]; 500 g ai/ha) | also measured
1 | CC(C)Oc1cccc(C2CN(C)C(=O)C2C(=O)Nc2ccc(F)cc2F)c1 (stereo not drawn) [Compound 378] | 20 | 90 | 10 | 50 | 60 | 80 | 90 | 70 | 70 | 50 | 80 | 50 | 70 | 50 | 70 | 80 |  |  |  |  | Barnyardgrass plant response rating (0 to 100 scale) [1]: 90; Foxtail, Giant plant response rating (0 to 100 scale) [2]: 100; Ragweed plant response rating (0 to 100 scale) [3]: 50; Ryegrass, Italian plant response rating (0 to 100 scale) [4]: 80; Pigweed plant response rating (0 to 100 scale) [5]: 80; Kochia plant response rating (0 to 100 scale) (Kochia (Kochia scoparia) [6]): 90; Plant response rating, Rice (rice (Oryra sativa); 250 g ai/ha): 0; Plant response rating, Barnyardgrass ([7]; 250 g ai/ha): 70; Plant response rating, Ducksalad ([8]; 250 g ai/ha): 30; Plant response rating, Sedge, Umbrella ([9]; 250 g ai/ha): 0; Plant response rating, Barnyardgrass [10, 20]: 80; Plant response rating, Galium [11, 20]: 60; Plant response rating, Blackgrass [12, 20]: 50; Plant response rating, Wheat [13, 20]: 40; Plant response rating, Foxtail, Giant [14, 20]: 80; Plant response rating, Ragweed [15, 20]: 20; Plant response rating, Ryegrass, Italian [16, 20]: 40; Plant response rating, Pigweed [17, 20]: 0; Plant response rating, Kochia (Kochia (Kochia scoparia) [18]; [20]): 50; Plant response rating, Corn (corn (Zea mays); [20]): 50
2 | O=C1NCC(c2cccc(OCC(F)F)c2)C1C(=O)Nc1cccc(F)c1F (stereo not drawn) [Compound 389] | 70 | 80 | 0 | 0 | 0 | 0 | 70 | 0 | 0 | 0 | 70 | 0 | 0 | 20 | 0 | 50 | 15 | 60 | 100 | 0 | Barnyardgrass plant response rating (0 to 100 scale) [1]: 70; Foxtail, Giant plant response rating (0 to 100 scale) [2]: 90; Ragweed plant response rating (0 to 100 scale) [3]: 0; Ryegrass, Italian plant response rating (0 to 100 scale) [4]: 0; Pigweed plant response rating (0 to 100 scale) [5]: 0; Kochia plant response rating (0 to 100 scale) (Kochia (Kochia scoparia) [6]): 0; Plant response rating, Barnyardgrass [10, 20]: 50; Galium plant response rating [11, 21]: 0; Plant response rating, Blackgrass [12, 20]: 0; Wheat plant response rating [13, 21]: 0; Foxtail, Giant plant response rating [14, 21]: 60; Ragweed plant response rating [15, 21]: 0; Ryegrass, Italian plant response rating [16, 21]: 0; Pigweed plant response rating [17, 21]: 0; Kochia plant response rating (Kochia (Kochia scoparia) [18]; [21]): 0; Corn plant response rating (corn (Zea mays); [21]): 30
3 | COc1ccc(NC(=O)C2C(=O)NCC2c2ccc(F)c(F)c2)c(F)c1 (stereo not drawn) [Compound 413] | 0 | 0 | 0 | 0 | 0 | 0 | 0 | 0 | 0 | 0 | 0 | 0 | 0 | 0 | 0 | 0 | 0 | 0 | 0 | 0 | Barnyardgrass plant response rating (0 to 100 scale, 0 is no effect, 100 is complete control) [1]: 0; Foxtail, Giant plant response rating (0 to 100 scale, 0 is no effect, 100 is complete control) [2]: 0; Ragweed plant response rating (0 to 100 scale, 0 is no effect, 100 is complete control) [3]: 0; Ryegrass, Italian plant response rating (0 to 100 scale, 0 is no effect, 100 is complete control) [4]: 0; Pigweed plant response rating (0 to 100 scale, 0 is no effect, 100 is complete control) [5]: 0; Kochia plant response rating (0 to 100 scale, 0 is no effect, 100 is complete control) (Kochia (Kochia scoparia) [6]): 0; Barnyardgrass plant response rating [10, 21]: 0; Galium plant response rating [11, 21]: 0; Blackgrass plant response rating [12, 21]: 0; Wheat plant response rating [13, 21]: 0; Foxtail, Giant plant response rating [14, 21]: 0; Ragweed plant response rating [15, 21]: 0; Ryegrass, Italian plant response rating [16, 21]: 0; Pigweed plant response rating [17, 21]: 0; Kochia plant response rating (Kochia (Kochia scoparia) [18]; [21]): 0; Corn plant response rating (corn (Zea mays); [21]): 0
4 | Cc1cccc(NC(=O)C2C(=O)NCC2c2cccc(OC(F)F)c2)c1F (stereo not drawn) [Compound 420] | 70 | 90 | 0 | 0 | 0 | 0 | 90 | 0 | 0 | 0 | 80 | 0 | 0 | 0 | 0 | 0 | 25 | 65 | 85 | 0 | Barnyardgrass plant response rating (0 to 100 scale, 0 is no effect, 100 is complete control) [1]: 90; Foxtail, Giant plant response rating (0 to 100 scale, 0 is no effect, 100 is complete control) [2]: 90; Ragweed plant response rating (0 to 100 scale, 0 is no effect, 100 is complete control) [3]: 0; Ryegrass, Italian plant response rating (0 to 100 scale, 0 is no effect, 100 is complete control) [4]: 0; Pigweed plant response rating (0 to 100 scale, 0 is no effect, 100 is complete control) [5]: 30; Kochia plant response rating (0 to 100 scale, 0 is no effect, 100 is complete control) (Kochia (Kochia scoparia) [6]): 30; Barnyardgrass plant response rating [10, 21]: 80; Galium plant response rating [11, 21]: 0; Blackgrass plant response rating [12, 21]: 0; Wheat plant response rating [13, 21]: 0; Foxtail, Giant plant response rating [14, 21]: 70; Ragweed plant response rating [15, 21]: 0; Ryegrass, Italian plant response rating [16, 21]: 0; Pigweed plant response rating [17, 21]: 0; Kochia plant response rating (Kochia (Kochia scoparia) [18]; [21]): 0; Corn plant response rating (corn (Zea mays); [21]): 0
